Experimental data reported in ChEMBL document CHEMBL2074486, “Identification of basic residues involved in drug export function of human multidrug resistance-associated protein 2” (J Biol Chem, 2000).

What was measured:
[1] = molecular target: T1, ATP-binding cassette sub-family C member 2 (Homo sapiens, UniProt Q92887); assay: TP_TRANSPORTER: excretion in MRP2-expressing CHO cells; format: functional, cell-based; settings: hamster
[2] = molecular target: T1, ATP-binding cassette sub-family C member 2; assay: TP_TRANSPORTER: excretion in MRP2-expressing COS-7 cells; format: functional, cell-based; settings: monkey

T1 sequence (Q92887 whole entry): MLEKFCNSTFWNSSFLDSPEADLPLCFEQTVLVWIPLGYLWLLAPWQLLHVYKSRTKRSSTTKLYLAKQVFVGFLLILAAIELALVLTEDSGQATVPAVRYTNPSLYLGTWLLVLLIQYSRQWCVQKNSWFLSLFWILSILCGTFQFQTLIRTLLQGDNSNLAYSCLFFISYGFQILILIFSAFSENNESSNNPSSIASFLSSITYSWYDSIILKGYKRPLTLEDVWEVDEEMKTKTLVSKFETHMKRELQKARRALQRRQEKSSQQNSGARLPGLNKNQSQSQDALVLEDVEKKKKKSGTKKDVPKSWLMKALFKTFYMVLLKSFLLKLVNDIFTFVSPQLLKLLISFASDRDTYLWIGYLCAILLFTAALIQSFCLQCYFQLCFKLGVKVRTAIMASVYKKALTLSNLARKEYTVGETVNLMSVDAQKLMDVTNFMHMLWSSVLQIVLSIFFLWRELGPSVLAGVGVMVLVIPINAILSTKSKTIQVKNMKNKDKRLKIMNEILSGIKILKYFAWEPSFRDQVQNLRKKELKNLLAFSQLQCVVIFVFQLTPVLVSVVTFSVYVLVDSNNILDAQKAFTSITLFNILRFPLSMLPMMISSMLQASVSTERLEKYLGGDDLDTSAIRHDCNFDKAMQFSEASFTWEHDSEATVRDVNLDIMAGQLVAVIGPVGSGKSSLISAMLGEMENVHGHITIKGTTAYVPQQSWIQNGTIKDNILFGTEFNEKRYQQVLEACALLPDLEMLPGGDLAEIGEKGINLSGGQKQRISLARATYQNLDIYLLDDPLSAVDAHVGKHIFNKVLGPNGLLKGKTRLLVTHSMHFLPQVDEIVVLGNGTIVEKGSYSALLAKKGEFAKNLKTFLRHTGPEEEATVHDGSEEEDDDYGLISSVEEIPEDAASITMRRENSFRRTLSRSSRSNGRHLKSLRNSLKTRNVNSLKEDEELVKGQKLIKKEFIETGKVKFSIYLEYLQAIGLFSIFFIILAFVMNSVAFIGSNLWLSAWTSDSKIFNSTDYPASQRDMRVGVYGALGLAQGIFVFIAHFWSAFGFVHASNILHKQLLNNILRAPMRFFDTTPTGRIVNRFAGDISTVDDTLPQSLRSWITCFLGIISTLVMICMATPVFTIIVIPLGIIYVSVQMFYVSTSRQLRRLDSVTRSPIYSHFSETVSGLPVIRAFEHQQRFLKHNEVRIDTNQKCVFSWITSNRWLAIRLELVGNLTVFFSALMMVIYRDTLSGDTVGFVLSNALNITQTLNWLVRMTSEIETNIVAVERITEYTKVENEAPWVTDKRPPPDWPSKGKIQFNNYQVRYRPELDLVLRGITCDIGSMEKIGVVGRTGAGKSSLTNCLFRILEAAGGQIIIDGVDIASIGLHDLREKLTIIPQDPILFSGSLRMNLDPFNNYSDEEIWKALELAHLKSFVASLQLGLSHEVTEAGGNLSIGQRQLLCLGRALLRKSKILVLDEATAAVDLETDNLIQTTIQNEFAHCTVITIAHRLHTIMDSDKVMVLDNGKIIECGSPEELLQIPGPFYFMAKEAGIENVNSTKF

Structure (SMILES)	Activity [1]	Activity [2]
N[C@@H](CCC(=O)N[C@H](CSc1cc(=O)n2c(=O)ccn12)C(=O)NCC(=O)O)C(=O)O	substrate [+]	substrate [+]
N[C@@H](CCC(=O)N[C@H](CSCc1ccc(-c2c3ccc(=O)cc-3oc3cc(O)ccc23)c(C(=O)O)c1)C(=O)NCC(=O)O)C(=O)O [Glutathione-methylfluorescein]	substrate [+]	substrate [+]
